Tested on: HCT116 WT
Test: Proliferation of HCT116 colorectal cell line, Cell TiterGlo
Type: cell-based, human
Settings: Homo sapiens, HCT-116, read-out: HCT116 IC50 (uM) HCT116 WT
Procedure: Briefly, compounds were tested for their effect on proliferation of HCT116 colorectal cell lines using Cell TiterGlo (Promega). Each compound was tested in a 10-point dose response experiment in triplicate. Multiple values in the column titled HCT116 WT reflect separate independent experiments. The three columns titled “HCT116 WT (repeat)”, “HCT116-CGN2KO” and “HCT116 WT+ISRIB” provide data for selected compounds that were tested simultaneously under three conditions. The HCT116 WT column lists IC50 against the wild type HCT116 colorectal cancer cell line. The HCT116-CGN2KO lists IC50 data for cells in which one component of the integrated stress response, GCN2, has been knocked out using CRISPR technology.

SMILES | IC50
Cn1nc(-c2ccc(NC(=O)c3ccccc3COCCN=[N+]=[N-])cc2)cc1NC(=O)c1cccc(C2(C(F)(F)F)N=N2)c1 [SW394739, 2-((2-azidoethoxy)methyl)-N-(4-(1-methyl-5-(3-(3-(trifluoromethyl)-3H-diazirin-3-yl)benzamido)-1H-pyrazol-3-yl)phenyl)benzamide] | 0.4 µM

Same assay, conditions: Homo sapiens, HCT-116, wild type HCT116; 10-point dose response in triplicate; multiple values = separate independent experiments; read-out: HCT116 IC50 (uM) HCT116 WT

SMILES | IC50
Cn1nc(-c2ccc(NC(=O)c3ccccc3Cl)cc2)cc1NC(=O)C1CCC(F)(F)CC1 [SW394602, 2-Chloro-N-(4-(5-(4,4-difluorocyclohexane-1-carboxamido)-1-methyl-1H-pyrazol-3-yl)phen-yl)benzamide] | 0.049 µM
Cn1nc(-c2ccc(NC(=O)c3cccnc3C(F)(F)F)cc2)cc1NC(=O)c1ccccc1 [SW394603, N-(4-(5-Benzamido-1-methyl-1H-pyrazol-3-yl)phenyl)-2-(trifluoromethyl)nicotinamide] | 0.02 µM
Cn1nc(-c2ccc(NC(=O)c3cccnc3C(F)(F)F)cc2)cc1NC(=O)c1ccccc1F [SW394629, N-(4-(5-(2-Fluorobenzamido)-1-methyl-1H-pyrazol-3-yl)phenyl)-2-(trifluoromethyl)nicotinamide] | 0.017 µM
Cc1ncccc1C(=O)Nc1ccc(-c2cc(NC(=O)c3ccccc3Cl)n(C)n2)cc1 [SW394630, N-(4-(5-(2-Chlorobenzamido)-1-methyl-1H-pyrazol-3-yl)phenyl)-2-methylnicotinamide] | 0.014 µM
Cn1nc(-c2ccc(NC(=O)c3cccnc3C(F)(F)F)cc2)cc1NC(=O)c1ccccc1Cl [SW394631, N-(4-(5-(2-Chlorobenzamido)-1-methyl-1H-pyrazol-3-yl)phenyl)-2-(trifluoromethyl)nicotinamide] | 0.022 µM
Cn1nc(-c2ccc(NC(=O)c3ccccc3COCCNC(=O)CCCC[C@H]3SC[C@H]4NC(=O)N[C@H]43)cc2)cc1NC(=O)c1ccccc1 [SW394656, N-(4-(5-benzamido-1-methyl-1H-pyrazol-3-yl)phenyl)-2-((2-(5-((3aR,4R,6aS)-2-oxohexahydro-1H-thieno[3,4-d]imidazol-4-yl)pentanamido)ethoxy)methyl)benzamide] | 0.071 µM
Cn1nc(-c2ccc(CC(=O)c3ccccc3CCCNC(=O)CCCC[C@@H]3CC[C@]4(C)CCC[C@H]34)cc2)cc1CC(=O)c1ccccc1 [SW394657] | 0.044 µM
Cn1nc(-c2ccc(NC(=O)c3ccccc3Cl)cc2)cc1NC(=O)c1cccc(CCCNC(=O)CCCC[C@H]2SC[C@H]3NC(=O)N[C@H]32)c1 [SW394692, 2-chloro-N-(4-(1-methyl-5-(3-(3-(5-((3aR,4R,6aS)-2-oxohexahydro-1H-thieno[3,4-d]142 imidazole-4-yl)pentanamido)propyl)benzamido)-1H-pyrazol-3-yl)phenyl)benzamide] | 0.5 µM
Cn1nc(-c2ccc(NC(=O)c3ccccc3Cl)cc2)cc1NC(=O)c1cccc(C#CCN)c1 [SW394693, N-(4-(5-(3-(3-aminoprop-1-yn-1-yl)benzamido)-1-methyl-1H-pyrazol-3-yl)phenyl)-2-chlorobenzamide] | 0.17 µM
Cc1ncccc1C(=O)Nc1ccc(-c2cc(NC(=O)c3ccccc3)n(C)n2)c(F)c1 [SW394694, N-(4-(5-Benzamido-1-methyl-1H-pyrazol-3-yl)-3-fluorophenyl)-2-methylnicotinamide] | 0.03 µM
Cc1ncccc1C(=O)Nc1ccc(-c2cc(NC(=O)c3ccccc3F)n(C)n2)c(F)c1 [SW394695, N-(3-Fluoro-4-(5-(2-fluorobenzamido)-1-methyl-1H-pyrazol-3-yl)phenyl)-2-methylnicotinamide] | 0.03 µM
Cc1ncccc1C(=O)Nc1ccc(-c2cc(NC(=O)C3CCC(F)(F)CC3)n(C)n2)c(F)c1 [SW394696, N-(4-(5-(4,4-Difluorocyclohexane-1-carboxamido)-1-methyl-1H-pyrazol-3-yl)-3-fluorophen-yl)-2-methylnicotinamide] | 0.09 µM
Cn1nc(-c2ccc(NC(=O)c3ccccc3N3CCOCC3)cc2)cc1NC(=O)c1ccccc1 [SW394697, N-(4-(5-Benzamido-1-methyl-1H-pyrazol-3-yl)phenyl)-2-morpholinobenzamide] | 0.77 µM
CN1CCN(c2ccccc2C(=O)Nc2ccc(-c3cc(NC(=O)c4ccccc4)n(C)n3)cc2)CC1 [SW394698, N-(4-(5-Benzamido-1-methyl-1H-pyrazol-3-yl)phenyl)-2-(4-methylpiperazin-1-yl)benzamide] | 10 µM
Cc1ncccc1C(=O)Nc1ccc(-c2cc(NC(=O)c3ccccc3Cl)n(C)n2)c(F)c1 [SW394699, N-(4-(5-(2-chlorobenzamido)-1-methyl-1H-pyrazol-3-yl)-3-fluorophenyl)-2-methylnicotinamide] | 0.02 µM
Cn1nc(-c2ccc(NC(=O)c3ccccc3COCCN=[N+]=[N-])cc2)cc1NC(=O)c1cccc(C(=O)c2ccccc2)c1 [SW394738, 2-((2-azidoethoxy)methyl)-N-(4-(5-(3-benzoylbenzamido)-1-methyl-1H-pyrazol-3-yl)phenyl)benzamide] | 0.07 µM
C#Cc1cccc(C(=O)Nc2cc(-c3ccc(NC(=O)c4ccccc4COCCNC(=O)CCC4(C)N=N4)cc3)nn2C)c1 [SW394741, N-(4-(5-(3-ethynylbenzamido)-1-methyl-1H-pyrazol-3-yl)phenyl)-2-((2-(3-(3-methyl-3H-diazirin-3-yl)propanamido)ethoxy)methyl)benzamide] | 0.17 µM
Cc1ncccc1C(=O)Nc1ccc(-c2cc(NC(=O)c3ccccc3)n(C)n2)cc1F [SW394743, N-(4-(5-Benzamido-1-methyl-1H-pyrazol-3-yl)-2-fluorophenyl)-2-methylnicotinamide] | 15 µM
Cc1ncccc1C(=O)Nc1ccc(-c2cc(NC(=O)C3CCC(F)(F)CC3)n(C)n2)cc1F [SW394744, N-(4-(5-(4,4-Difluorocyclohexane-1-carboxamido)-1-methyl-1H-pyrazol-3-yl)-2-fluorophen-yl)-2-methylnicotinamide] | > 50 µM
Cc1ncccc1C(=O)Nc1ccc(-c2cc(NC(=O)c3ccccc3F)n(C)n2)cc1F [SW394745, N-(2-Fluoro-4-(5-(2-fluorobenzamido)-1-methyl-1H-pyrazol-3-yl)phenyl)-2-methylnicotinamide] | 21.7 µM
Cc1ncccc1C(=O)Nc1ccc(-c2cc(NC(=O)C3CCOCC3)n(C)n2)cc1 [SW394746, 2-Methyl-N-(4-(1-methyl-5-(tetrahydro-2H-pyran-4-carboxamido)-1H-pyrazol-3-yl)phenyl)nicotinamide] | 0.13 µM
Cn1nc(-c2ccc(NC(=O)c3cccc(CN=[N+]=[N-])c3Cl)cc2)cc1NC(=O)c1ccccc1Cl [SW394763, 3-(azidomethyl)-2-chloro-N-(4-(5-(2-chlorobenzamido)-1-methyl-1H-pyrazol-3-yl)phenyl)benzamide] | 0.02 µM
Cn1nc(-c2ccc(NC(=O)c3ccccc3C3CCN(C(=O)OC(C)(C)C)CC3)cc2)cc1NC(=O)c1ccccc1 [SW394764, tert-butyl4-(2-((4-(5-benzamido-1-methyl-1H-pyrazol-3-yl)phenyl)carbamoyl)phenyl)piperidine-1-carboxylate] | 0.3 µM
Cn1nc(-c2ccc(NC(=O)c3ccccc3C3CCNCC3)cc2)cc1NC(=O)c1ccccc1 [SW394767, N-(4-(5-benzamido-1-methyl-1H-pyrazol-3-yl)phenyl)-2-(piperidin-4-yl)benzamide] | 0.27 µM
Cn1nc(-c2ccc(NC(=O)c3cccc(CN)c3Cl)cc2)cc1NC(=O)c1ccccc1Cl [SW394771, 3-(aminomethyl)-2-chloro-N-(4-(5-(2-chlorobenzamido)-1-methyl-1H-pyrazol-3-yl)phenyl)benzamide] | 0.086 µM
CN(C)c1cccc(C(=O)Nc2cc(-c3ccc(NC(=O)c4ccccc4Cl)cc3)nn2C)c1 [SW394870, 2-Chloro-N-(4-(5-(3-(dimethylamino)benzamido)-1-methyl-1H-pyrazol-3-yl)phenyl)benzamide] | 0.02 µM
Cc1ncccc1C(=O)Nc1ccc(-c2cc(NC(=O)c3cccc(N(C)C)c3)n(C)n2)cc1 [SW394871, N-(4-(5-(3-(Dimethylamino)benzamido)-1-methyl-1H-pyrazol-3-yl)phenyl)-2-methylnicotine-amide] | 0.01 µM
Cn1nc(-c2ccc(NC(=O)c3ccccc3Cl)cc2)cc1NC(=O)Nc1ccccc1 [SW394872, 2-Chloro-N-(4-(1-methyl-5-(3-phenylureido)-1H-pyrazol-3-yl)phenyl)benzamide] | 0.11 µM
Cn1nc(-c2ccc(NC(=O)c3ccccc3Cl)cc2)cc1NC(=O)N1CCOCC1 [SW394873, N-(3-(4-(2-Chlorobenzamido)phenyl)-1-methyl-1H-pyrazol-5-yl)morpholine-4-carboxamide] | 0.29 µM
Cn1nc(-c2ccc(NC(=O)c3ccccc3Cl)cc2)cc1NC(=O)N1CCCCC1 [SW394874, N-(3-(4-(2-Chlorobenzamido)phenyl)-1-methyl-1H-pyrazol-5-yl)piperidine-1-carboxamide] | 0.067 µM

Same assay, conditions: wild type HCT116; 10-point dose response in triplicate; multiple values = separate independent experiments

SMILES | HCT116 IC50 (uM) HCT116 WT
Cn1nc(-c2ccc(NC(=O)c3ccccc3Cl)cc2)cc1NS(=O)(=O)c1ccccc1 [SW394768, 2-Chloro-N-(4-(1-methyl-5-(phenylsulfonamido)-1H-pyrazol-3-yl)phenyl)benzamide] | inactive
Cn1nc(-c2ccc(NC(=O)c3ccccc3Cl)cc2)cc1NC(=O)c1cccc(C(=O)O)c1 [SW394800, 3-((3-(4-(2-Chlorobenzamido)phenyl)-1-methyl-1H-pyrazol-5-yl)carbamoyl)benzoic acid] | inactive

Same assay, conditions: wild type HCT116; 10-point dose response in triplicate; multiple values = separate independent experiments; read-out: HCT116 IC50 (uM) HCT116 WT

SMILES | IC50
Cn1nc(-c2ccc(NC(=O)N3CCCCC3)cc2)cc1NC(=O)c1ccccc1 [SW394601, N-(4-(5-benzamido-1-methyl-1H-pyrazol-3-yl)phenyl)piperidine-1-carboxamide] | 7.4 µM
